Data: US20230047788A1, “COMPOSITIONS COMPRISING 5-CHOLESTEN-3, 25-DIOL, 3-SULFATE (25HC3S) OR PHARMACEUTICALLY ACCEPTABLE SALT THEREOF AND AT LEAST ONE CYCLIC OLIGOSACCHARIDE” (Virginia Commonwealth University, priority 2016, published 2023)

Assay: Effect of phosphate and borate buffers on chemical stability (% remaining, impurity profile), osmolality, pH and appearance of 25HC3S 30 mg/mL in 250 mg/mL HPBCD at 80°C and 60°C
Format: physicochemical
Design: First Order Rate Constant: unit not given beside the values
Method: A total of six 25HC3S formulations at 30 mg/mL in 250 mg/mL of 2-hydroxypropyl beta cyclodextrin (HPBCD) containing 10, 20, 50 and 100 mM phosphate buffers at pH 7.5 to 8.1 and 10 and 50 mM borate buffers at pH 9.4 were prepared for the stability study. The chemical stability (measured as % remaining of 25HC3S) and physical stability (osmolality, pH and appearance) of the formulations were monitored under accelerated conditions for up to 7 days at 80° C. and up to 29 days at 60° C.
Two stock solutions of phosphate buffer at 100 and 200 mM at pH 7.4 and 7.3, respectively and one borate buffer at 100 mM at pH 9.3 were prepared (Tables 22A and 22B) and used for 250 mg/mL HPBCD vehicles preparation (Table 23).
Approximately 1200 mg each of 25HC3S was weighed into 40 mL volumetric flasks and diluted to volume with the six HPBCD vehicles containing 10-100 mM phosphate buffers or 10 and 50 mM borate buffers, respectively (Table 24). The final concentration of 25HC3S was 30 mg/mL (wt/volume, without adjusting for API purity). Aliquots of 2 mL of each formulation were filled into 2 mL glass vials, stoppered and sealed for stability sample set-up at 60° C. and 80° C. to study the effect of phosphate buffer (pH 7.5-8.1) and borate buffer (pH 9.4) at various buffer concentrations on the stability of the HPBCD formulations (Table 26).
A 0.5 mL of sample solution was transferred to a 25 mL volumetric flask and QS'ed with methanol/water=95/5 for 25HC3S concentration determination by HPLC. The % remaining of 25HC3S was calculated as follows: […]

[1] = 250 mg/mL HPBCD, 10 mM borate, 80°C, day 0
[2] = 250 mg/mL HPBCD, 10 mM borate, 80°C, day 1
[3] = 250 mg/mL HPBCD, 10 mM borate, 80°C, day 2
[4] = 250 mg/mL HPBCD, 10 mM borate, 80°C, day 3
[5] = 250 mg/mL HPBCD, 10 mM borate, 80°C, day 7
[6] = 250 mg/mL HPBCD, 10 mM borate, day 0
[7] = 250 mg/mL HPBCD, 10 mM phosphate, 80°C, day 0
[8] = 250 mg/mL HPBCD, 10 mM phosphate, 80°C, day 1
[9] = 250 mg/mL HPBCD, 10 mM phosphate, 80°C, day 2
[10] = 250 mg/mL HPBCD, 10 mM phosphate, 80°C, day 3
[11] = 250 mg/mL HPBCD, 10 mM phosphate, 80°C, day 7
[12] = 250 mg/mL HPBCD, 10 mM phosphate, day 0
[13] = 250 mg/mL HPBCD, 20 mM phosphate, 80°C, day 0
[14] = 250 mg/mL HPBCD, 20 mM phosphate, 80°C, day 1
[15] = 250 mg/mL HPBCD, 20 mM phosphate, 80°C, day 2
[16] = 250 mg/mL HPBCD, 20 mM phosphate, 80°C, day 3
[17] = 250 mg/mL HPBCD, 20 mM phosphate, 80°C, day 7

C[C@H](CCCC(C)(C)O)[C@H]1CC[C@H]2[C@@H]3CC=C4C[C@@H](OS(=O)(=O)[O-])CC[C@]4(C)[C@H]3CC[C@]12C.[Na+] [25HC3S, 5-cholesten-3, 25-diol, 3-sulfate]
Calculated t90 (10 mM borate, 80°C): 2.0 days
First Order Rate Constant (10 mM borate, 80°C): −0.0463
Intercept (first order fit of % remaining) (10 mM borate, 80°C): 98.9
Calculated t90 (10 mM phosphate, 80°C): 2.3 days
First Order Rate Constant (10 mM phosphate, 80°C): −0.0462
Intercept (first order fit of % remaining) (10 mM phosphate, 80°C): 99.9
Calculated t90 (20 mM phosphate, 80°C): 2.2 days
First Order Rate Constant (20 mM phosphate, 80°C): −0.0437
Intercept (first order fit of % remaining) (20 mM phosphate, 80°C): 99.2
Calculated t90 (50 mM borate, 80°C): 1.9 days
First Order Rate Constant (50 mM borate, 80°C): −0.0484
Intercept (first order fit of % remaining) (50 mM borate, 80°C): 98.8
Calculated t90 (50 mM phosphate, 80°C): 2.2 days
First Order Rate Constant (50 mM phosphate, 80°C): −0.0451
Intercept (first order fit of % remaining) (50 mM phosphate, 80°C): 99.5
Calculated t90 (100 mM phosphate, 80°C): 2.2 days
First Order Rate Constant (100 mM phosphate, 80°C): −0.0430
Intercept (first order fit of % remaining) (100 mM phosphate, 80°C): 99
pH (250 mg/mL HPBCD, 10 mM borate, 60°C, 29 days): 8.90
25HC3S concentration [1]: 28.58 mg/mL
% Remaining of 25HC3S [1]: 100.0%
25HC3S concentration [2]: 26.90 mg/mL
% Remaining of 25HC3S [2]: 94.1%
Osmolality [2]: 318 mmol/kg
pH [2]: 9.12
25HC3S concentration [3]: 25.63 mg/mL
% Remaining of 25HC3S [3]: 89.7%
Osmolality [3]: 323 mmol/kg
pH [3]: 8.92
25HC3S concentration [4]: 24.40 mg/mL
% Remaining of 25HC3S [4]: 85.4%
Osmolality [4]: 328 mmol/kg
pH [4]: 8.60
25HC3S concentration [5]: 20.55 mg/mL
% Remaining of 25HC3S [5]: 71.9%
Appearance [5]: light brown
Osmolality [5]: 352 mmol/kg
pH [5]: 7.06
Osmolality [6]: 316 mmol/kg
pH [6]: 9.36
pH (250 mg/mL HPBCD, 10 mM phosphate, 60°C, 29 days): 7.04
25HC3S concentration [7]: 28.45 mg/mL
% Remaining of 25HC3S [7]: 100.0%
25HC3S concentration [8]: 27.03 mg/mL
% Remaining of 25HC3S [8]: 95.0%
Osmolality [8]: 291 mmol/kg
pH [8]: 7.28
25HC3S concentration [9]: 26.00 mg/mL
% Remaining of 25HC3S [9]: 91.4%
Osmolality [9]: 286 mmol/kg
pH [9]: 6.82
25HC3S concentration [10]: 24.70 mg/mL
% Remaining of 25HC3S [10]: 86.8%
Osmolality [10]: 294 mmol/kg
pH [10]: 6.34
25HC3S concentration [11]: 20.58 mg/mL
% Remaining of 25HC3S [11]: 72.3%
Osmolality [11]: 300 mmol/kg
pH [11]: 2.67
Osmolality [12]: 273 mmol/kg
pH [12]: 8.09
pH (250 mg/mL HPBCD, 20 mM phosphate, 60°C, 29 days): 7.17
25HC3S concentration [13]: 28.63 mg/mL
% Remaining of 25HC3S [13]: 100.0%
25HC3S concentration [14]: 27.03 mg/mL
% Remaining of 25HC3S [14]: 94.4%
Osmolality [14]: 325 mmol/kg
pH [14]: 7.35
25HC3S concentration [15]: 26.05 mg/mL
% Remaining of 25HC3S [15]: 91.0%
Osmolality [15]: 328 mmol/kg
pH [15]: 7.13
25HC3S concentration [16]: 24.70 mg/mL
% Remaining of 25HC3S [16]: 86.3%
Osmolality [16]: 328 mmol/kg
pH [16]: 6.80
25HC3S concentration [17]: 21.00 mg/mL
% Remaining of 25HC3S [17]: 73.3%
Osmolality [17]: 354 mmol/kg
pH [17]: 5.75
Osmolality (250 mg/mL HPBCD, 20 mM phosphate, day 0): 311 mmol/kg
